Values joined by “and” are separate entries in the source; they are usually repeats but may differ in a detail not shown here. Identical values can stand only once. Like-named read-outs stand apart in the source and are kept apart here.
Legend:
Type in all cases: biochemical
DPP8 = DPP8 (Homo sapiens, UniProt Q6V1X1); experiment: DPP8 activity assay (BPS Bioscience kit); conditions: for DPP8 activity / DPP8 assay, Emission (450 nm): 100 µM, Exp #1-#5; for DPP8 activity: DMSO = Ctrl;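 for DPP8 assay, Emission (450 nm): fluorescence read with excitation at 365 nm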
Method: A DPP8 assay kit was purchased from BPS Bioscience (Cat# 800208), and the assay protocol was followed to test for inhibitory activity on DPP8. Briefly, DPP substrate 1 was diluted to make a 100 µM stock solution, and DPP8 protein was diluted in DPP assay buffer to 2 ng/µl (20 ng/reaction). For the tested compounds, 10 µl of diluted DPP8 protein, 5 µl of diluted DPP substrate 1, 84 µl of DPP assay buffer and 1 µl of inhibitor were addedinto the assay system for a total volume of 100 µl. The reaction mixtures were prepared in duplicate on a 96-well plate and incubated at room temperature for 10 min. […]

DPP9 = target: T1, DPP9 (Homo sapiens, UniProt Q86TI2); experiment: DPP9 activity assay (BPS Bioscience kit); conditions: 100 µM, Well #1-#3; for DPP9 activity: DMSO = Ctrl;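 for DPP9 assay, Emission (450 nm): 20 ng DPP9 per 100 µl reaction with DPP substrate 1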
T1 construct: purchased BPS Bioscience 800209

DPP4 = DPP4 (Homo sapiens, UniProt P27487); experiment: DPP4 activity assay (DPP4 inhibitor screening assay kit, Cayman); design: purchased Cayman Chemical, Ann Arbor, MI, USA; conditions: for Ki: DPP4; for Ki / IC50: means ± SE; for IC50: in vitro, read-out: IC50 of DPP4 Inhibition; for remaining activity at 10 µM: 0.5 h, control mean 100.0;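 for all read-outs here: fluorescence read at excitation 360 nm and emission 460 nm after the enzyme reaction ran 30 min at 37 °C in a 96-well plate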
[1] = Figure 1A raw data, read-out: DPP4 activity in library screen, Exp 1
[2] = Figure 1A raw data, read-out: DPP4 activity in library screen, Exp 2
[3] = Figure 1A raw data, read-out: DPP4 activity in library screen, Exp 3
[4] = mean of Exp 1-3, read-out: DPP4 activity in library screen, Mean

T1 sequence (Q86TI2 whole entry): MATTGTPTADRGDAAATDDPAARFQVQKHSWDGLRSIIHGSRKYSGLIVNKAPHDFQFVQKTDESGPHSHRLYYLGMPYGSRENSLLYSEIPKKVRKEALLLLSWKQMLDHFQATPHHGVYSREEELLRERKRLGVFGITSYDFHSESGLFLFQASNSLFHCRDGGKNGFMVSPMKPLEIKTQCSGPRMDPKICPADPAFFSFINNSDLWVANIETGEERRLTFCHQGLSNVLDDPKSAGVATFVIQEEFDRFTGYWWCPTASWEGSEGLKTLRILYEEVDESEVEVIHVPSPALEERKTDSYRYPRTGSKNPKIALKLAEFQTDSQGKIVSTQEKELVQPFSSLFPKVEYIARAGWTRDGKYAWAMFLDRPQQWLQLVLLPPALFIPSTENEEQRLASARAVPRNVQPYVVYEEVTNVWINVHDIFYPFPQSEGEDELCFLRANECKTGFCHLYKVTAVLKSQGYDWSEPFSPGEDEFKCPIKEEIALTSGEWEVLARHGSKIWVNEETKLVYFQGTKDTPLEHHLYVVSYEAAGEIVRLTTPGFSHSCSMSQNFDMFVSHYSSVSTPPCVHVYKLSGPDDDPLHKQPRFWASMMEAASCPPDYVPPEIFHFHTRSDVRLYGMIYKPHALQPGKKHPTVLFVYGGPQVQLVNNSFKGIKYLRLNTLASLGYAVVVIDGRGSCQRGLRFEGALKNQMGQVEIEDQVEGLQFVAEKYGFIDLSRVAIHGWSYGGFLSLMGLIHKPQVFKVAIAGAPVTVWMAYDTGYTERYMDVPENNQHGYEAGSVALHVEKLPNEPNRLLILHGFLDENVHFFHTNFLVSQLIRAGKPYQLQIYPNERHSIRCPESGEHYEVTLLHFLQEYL
Chain of DPP8 (Q6V1X1 whole entry): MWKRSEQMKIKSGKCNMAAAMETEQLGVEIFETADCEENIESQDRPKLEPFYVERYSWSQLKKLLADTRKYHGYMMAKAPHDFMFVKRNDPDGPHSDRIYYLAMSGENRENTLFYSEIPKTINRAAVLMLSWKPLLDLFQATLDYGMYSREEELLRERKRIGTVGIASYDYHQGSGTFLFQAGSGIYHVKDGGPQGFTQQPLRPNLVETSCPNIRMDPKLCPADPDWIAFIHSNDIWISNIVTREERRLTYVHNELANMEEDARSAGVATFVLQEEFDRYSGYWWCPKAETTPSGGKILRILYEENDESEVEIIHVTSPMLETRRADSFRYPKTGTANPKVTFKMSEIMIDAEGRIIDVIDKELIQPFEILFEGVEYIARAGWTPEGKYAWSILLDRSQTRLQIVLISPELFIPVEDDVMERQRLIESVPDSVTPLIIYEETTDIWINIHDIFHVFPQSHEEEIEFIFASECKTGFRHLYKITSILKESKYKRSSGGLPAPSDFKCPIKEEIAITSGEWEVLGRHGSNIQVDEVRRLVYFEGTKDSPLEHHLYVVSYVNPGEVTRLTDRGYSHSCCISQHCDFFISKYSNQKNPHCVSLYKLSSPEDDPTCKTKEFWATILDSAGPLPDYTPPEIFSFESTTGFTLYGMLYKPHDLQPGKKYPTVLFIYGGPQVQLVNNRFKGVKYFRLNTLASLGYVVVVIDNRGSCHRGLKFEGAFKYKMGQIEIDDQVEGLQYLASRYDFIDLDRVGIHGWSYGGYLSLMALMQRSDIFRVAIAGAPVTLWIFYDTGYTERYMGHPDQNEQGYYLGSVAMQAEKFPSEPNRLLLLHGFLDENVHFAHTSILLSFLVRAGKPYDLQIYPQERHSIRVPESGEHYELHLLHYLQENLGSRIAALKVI
Chain of DPP4 (P27487 whole entry): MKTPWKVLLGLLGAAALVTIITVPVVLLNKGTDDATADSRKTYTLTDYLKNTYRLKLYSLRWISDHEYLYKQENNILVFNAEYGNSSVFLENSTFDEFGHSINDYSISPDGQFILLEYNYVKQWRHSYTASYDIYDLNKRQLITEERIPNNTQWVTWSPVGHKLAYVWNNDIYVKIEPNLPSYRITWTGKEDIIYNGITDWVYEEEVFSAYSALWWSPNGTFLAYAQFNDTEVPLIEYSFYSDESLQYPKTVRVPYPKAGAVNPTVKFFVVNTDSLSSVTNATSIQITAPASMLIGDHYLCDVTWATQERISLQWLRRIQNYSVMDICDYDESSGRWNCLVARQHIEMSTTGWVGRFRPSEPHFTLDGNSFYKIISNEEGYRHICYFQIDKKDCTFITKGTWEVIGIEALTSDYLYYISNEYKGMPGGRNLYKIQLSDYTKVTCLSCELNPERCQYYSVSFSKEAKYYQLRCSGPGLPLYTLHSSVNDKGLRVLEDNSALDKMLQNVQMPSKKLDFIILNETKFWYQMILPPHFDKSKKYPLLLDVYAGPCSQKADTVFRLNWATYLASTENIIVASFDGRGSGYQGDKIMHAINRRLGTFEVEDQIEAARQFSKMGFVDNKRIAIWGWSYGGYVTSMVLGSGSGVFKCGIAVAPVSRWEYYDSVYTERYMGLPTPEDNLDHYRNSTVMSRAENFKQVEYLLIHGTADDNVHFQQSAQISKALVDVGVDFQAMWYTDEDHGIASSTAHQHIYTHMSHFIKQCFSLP

| IC50 (DPP8) | activity against DPP8 (DPP8; tested at 100 µM) | DPP9 assay, Emission (450 nm) (DPP9) | IC50 (DPP4) | remaining activity at 10 µM (DPP4; [1]) | remaining activity at 10 µM (DPP4; [2]) | remaining activity at 10 µM (DPP4; [3]) | remaining activity at 10 µM (DPP4; [4]) | Structure (SMILES) | DPP8 activity (DPP8) | DPP9 activity (DPP9) | Ki (DPP4) | DPP8 assay, Emission (450 nm) (DPP8) |
| --- | --- | --- | --- | --- | --- | --- | --- | --- | --- | --- | --- | --- |
| > 100 µM | very weak activity | 41706 and 44766 and 43536 | 23.1 ± 3.57 µM | – | – | – | – | O=C(O)c1cc(O)c2c(c1)C(=O)c1cccc(O)c1C2=O [Rhein] | 54.9 % of Ctrl and 47.9 % of Ctrl and 41.4 % of Ctrl and 44.7 % of Ctrl and 72.6 % of Ctrl | 85.6 % of Ctrl and 91.9 % of Ctrl and 89.4 % of Ctrl | 3.42 ± 0.53 µM | – |
| – | – | 43157 and 48875 and 45154 | > 100 µM | 64.4% | 60% | 75% | 66.5% | Cc1cc(O)c2c(c1)C(=O)c1cccc(O)c1C2=O [Chrysophanol] | 77.8 % of Ctrl and 97.3 % of Ctrl and 112.7 % of Ctrl and 85.8 % of Ctrl and 86.9 % of Ctrl | 88.6 % of Ctrl and 100.3 % of Ctrl and 92.7 % of Ctrl | – | 27057 and 31330 and 23865 and 45793 and 40995 |
| – | – | 49845 and 45873 and 51642 | – | 44.7% | 52.2% | 53.9% | 50.3% | COc1cc(O)c2c(c1)C(=O)c1cc(C)cc(O)c1C2=O [Rheochrysidin] | 78.2 % of Ctrl and 100.6 % of Ctrl and 89.5 % of Ctrl and 95.0 % of Ctrl and 106.4 % of Ctrl | 102.3 % of Ctrl and 94.2 % of Ctrl and 106.0 % of Ctrl | – | – |

| Structure (SMILES) | IC50 (DPP8) | activity against DPP8 (DPP8; tested at 100 µM) | DPP9 assay, Emission (450 nm) (DPP9) | IC50 (DPP4) | remaining activity at 10 µM (DPP4; [1]) | remaining activity at 10 µM (DPP4; [2]) | remaining activity at 10 µM (DPP4; [3]) | remaining activity at 10 µM (DPP4; [4]) | DPP8 activity (DPP8) | DPP9 activity (DPP9) | Ki (DPP4) | DPP8 assay, Emission (450 nm) (DPP8) |
| --- | --- | --- | --- | --- | --- | --- | --- | --- | --- | --- | --- | --- |
| O=C1c2cccc(O)c2C(=O)c2c(O)cc(CO)cc21 [Aloe-emodin] | – | – | 45255 and 48696 and 44751 | 16 ± 4.24 µM | – | – | – | – | 59.6 % of Ctrl and 101.9 % of Ctrl and 112.4 % of Ctrl and 103.3 % of Ctrl and 77.7 % of Ctrl | 92.9 % of Ctrl and 100.0 % of Ctrl and 91.9 % of Ctrl | 2.37 ± 0.62 µM | 28333 and 31255 and 28705 and 40933 and 31387 |

From publication PMC5428354, “Screening of a natural compound library identifies emodin, a natural compound from Rheum palmatum Linn that inhibits DPP4” (PeerJ, 2017)
